Test results from patent publication US11046954B2, “Targeted protein degradation to attenuate adoptive T-cell therapy associated adverse inflammatory responses” (Dana-Farber Cancer Institute, Inc., priority 2015, dated 2021).

Experiments:
FKBP*-KRASG12V = experiment: Immunoblot of NIH3T3 cells expressing FKBP* fused to KRASG12V: degradation; format: cell-based; settings: 1 μM, 24 hours
Experimental: (§1) FIG. 19 is an immunoblot of NIH3T3 cells expressing KRASG12V allele fused to FKBP* in the N-terminus or C-terminus. Cells were treated with 500 nM dFKBP7 for the indicated time. Cells were harvested and immunoblotted to measure degradation of FKBP*-KRASG12V and downstream surrogates of KRAS signaling (e.g. pMEK and pAKT).
(§2) FIG. 20 is an immunoblot of NIH3T3 cells expressing FKBP* fused to the N-terminus of KRASG12V treated with luM of the indicated dFKBP heterobifunctional compounds for 24 hours. Cells were harvested and immunoblotted to measure degradation of FKBP*-KRASG12V and downstream surrogates of KRAS signaling (e.g. pMEK and pAKT).
as §2, with “21” for “20”, “with” for “with luM of”, “concentrations of dFKBP13” for “dFKBP heterobifunctional compounds”
(§3) FIG. 22 is an immunoblot of NIH3T3 cells expressing FKBP* fused to the N-terminus of KRASG12V treated with luM dFKBP13 for the indicated time. Cells were harvested and immunoblotted to measure degradation of FKBP*-KRASG12V and downstream surrogates of KRAS signaling (e.g. pMEK and pAKT).
(§4) Cells were treated with 500 nM dFKBP7 for the indicated time. Cells were harvested and immunoblotted to measure degradation of FKBP*-KRAS and downstream surrogates of KRAS signaling (e.g. pMEK and pAKT).
(§5) Western blotting of NIH3T3 cells expressing dTAG-KRASG12V were treated with 1 μM of the indicated dFKBP heterobifunctional compounds for 24 hours. Cells were harvested and immunoblotted to measure degradation of FKBP*-KRAS and downstream surrogates of KRAS signaling (e.g. pMEK and pAKT).
(§6) Western blotting of NIH3T3 cells expressing FKBP* fused to the N-terminus of KRAS treated with the indicated concentrations of dFKBP13 for 24 hours. Cells were harvested and immunoblotted to measure degradation of FKBP*-KRAS and downstream surrogates of KRAS signaling (e.g. pMEK and pAKT).
(§7) To evaluate the kinetic control of targeted degradation of dTAG-KRAS, dFKBP13 was administered by increased duration. Western blotting of NIH3T3 cells expressing FKBP* fused to the N-terminus of KRAS treated with 1 μM dFKBP13 for the indicated time. Cells were harvested and immunoblotted to measure degradation of FKBP*-KRAS and downstream surrogates of KRAS signaling (e.g. pMEK and pAKT).

[1] = test system: downstream surrogates of KRAS signaling (e.g. pMEK and pAKT); experiment: Immunoblot of NIH3T3 cells expressing FKBP*-KRASG12V: downstream KRAS signaling; format: cell-based; settings: NIH3T3 FKBP*-KRASG12V; 1 μM, 24 hours
Experimental: as §1, §2
as §3, with “21” for “22”, “the indicated concentrations of” for “luM”, “24 hours.” for “the indicated time.”
as §3, §4, §5, §6, §7

CC[C@H](C(=O)N1CCCC[C@H]1C(=O)O[C@H](CCc1ccc(OC)c(OC)c1)c1cccc(OCC(=O)NCCCCCCCCNC(=O)COc2cccc3c2C(=O)N(C2CCC(=O)NC2=O)C3=O)c1)c1cc(OC)c(OC)c(OC)c1 (some centres unmarked) [dFKBP9]
degradation of FKBP*-KRASG12V (FKBP*-KRASG12V): potent degradation | inhibition of downstream signaling (pMEK, pAKT) [1]: inhibition of downstream signaling
